Source: PubChem BioAssay (NCI)
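96-well plates; 48 h exposure; 5 concentrations. Endpoints by linear interpolation between flanking doses. Not reached: highest tested concentration assigned. TGI denotes the concentration required for complete inhibition of growth.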

How the values were obtained:
Assay in all cases: inhibition of tumour cell growth, NCI panel, 48 h
SF-268 CNS = tested on: SF-268 CNS
HOP-62 NSCLC = tested on: HOP-62 NSCLC
SN12C renal = tested on: SN12C renal
SR leukemia = tested on: SR leukemia
SNB-19 CNS = tested on: SNB-19 CNS
HCT-15 colon = tested on: HCT-15 colon
HCT-116 colon = tested on: HCT-116 colon
COLO 205 colon = tested on: COLO 205 colon
MDA-MB-435 = tested on: MDA-MB-435
SF-539 CNS = tested on: SF-539 CNS
U251 CNS = tested on: U251 CNS
OVCAR-4 ovarian = tested on: OVCAR-4 ovarian
NCI-H23 lung = tested on: NCI-H23 lung
TK-10 renal = tested on: TK-10 renal
UO-31 renal = tested on: UO-31 renal
IGROV1 ovarian = tested on: IGROV1 ovarian
HT29 colon = tested on: HT29 colon
KM12 colon = tested on: KM12 colon
SK-MEL-2 melanoma = tested on: SK-MEL-2 melanoma
RXF 393 renal = tested on: RXF 393 renal
NCI/ADR-RES ovarian = tested on: NCI/ADR-RES ovarian
UACC-62 melanoma = tested on: UACC-62 melanoma
SK-MEL-5 melanoma = tested on: SK-MEL-5 melanoma
SW-620 colon = tested on: SW-620 colon
MDA-N = tested on: MDA-N
M14 melanoma = tested on: M14 melanoma
OVCAR-8 ovarian = tested on: OVCAR-8 ovarian
EKVX NSCLC = tested on: EKVX NSCLC
OVCAR-5 ovarian = tested on: OVCAR-5 ovarian
RPMI-8226 leukemia = tested on: RPMI-8226 leukemia
CAKI-1 renal = tested on: CAKI-1 renal
SK-MEL-28 melanoma = tested on: SK-MEL-28 melanoma
HOP-92 NSCLC = tested on: HOP-92 NSCLC
PC-3 prostate = tested on: PC-3 prostate
ACHN renal = tested on: ACHN renal
UACC-257 melanoma = tested on: UACC-257 melanoma
MCF7 breast = tested on: MCF7 breast
A498 renal = tested on: A498 renal
DU-145 prostate = tested on: DU-145 prostate
NCI-H226 lung = tested on: NCI-H226 lung
NCI-H460 lung = tested on: NCI-H460 lung
SF-295 CNS = tested on: SF-295 CNS
BT-549 breast = tested on: BT-549 breast
SNB-75 CNS = tested on: SNB-75 CNS
HS 578T breast = tested on: HS 578T breast
CCRF-CEM leukemia = tested on: CCRF-CEM leukemia
786-0 renal = tested on: 786-0 renal
MDA-MB-231 breast = tested on: MDA-MB-231 breast
T-47D breast = tested on: T-47D breast
SK-OV-3 ovarian = tested on: SK-OV-3 ovarian
NCI-H522 lung = tested on: NCI-H522 lung
HCC-2998 colon = tested on: HCC-2998 colon
K-562 leukemia = tested on: K-562 leukemia
A549 NSCLC = tested on: A549 NSCLC
MOLT-4 leukemia = tested on: MOLT-4 leukemia
LOX IMVI melanoma = tested on: LOX IMVI melanoma
HL-60(TB) leukemia = tested on: HL-60(TB) leukemia
OVCAR-3 ovarian = tested on: OVCAR-3 ovarian
MALME-3M melanoma = tested on: MALME-3M melanoma

O=C(NC(N1CCN(c2cc3c(cc2F)c(=O)c(C(=O)O)cn3C2CC2)CC1)(C(F)(F)F)C(F)(F)F)c1ccccc1
TGI (SF-268 CNS): > 100 µM
TGI (HOP-62 NSCLC): > 100 µM
TGI (SN12C renal): > 100 µM
TGI (SR leukemia): 87.2 µM
TGI (SNB-19 CNS): > 100 µM
TGI (HCT-15 colon): 61.6 µM
TGI (HCT-116 colon): > 100 µM
TGI (COLO 205 colon): 34.8 µM
TGI (MDA-MB-435): > 100 µM
TGI (SF-539 CNS): 80.8 µM
TGI (U251 CNS): > 100 µM
TGI (OVCAR-4 ovarian): > 100 µM
TGI (NCI-H23 lung): 89.2 µM
TGI (TK-10 renal): 87.4 µM
TGI (UO-31 renal): 81.5 µM
TGI (IGROV1 ovarian): > 100 µM
TGI (HT29 colon): > 100 µM
TGI (KM12 colon): 84.4 µM
TGI (SK-MEL-2 melanoma): > 100 µM
TGI (RXF 393 renal): > 100 µM
TGI (NCI/ADR-RES ovarian): > 100 µM
TGI (UACC-62 melanoma): > 100 µM
TGI (SK-MEL-5 melanoma): 62.9 µM
TGI (SW-620 colon): > 100 µM
TGI (MDA-N): > 100 µM
TGI (M14 melanoma): > 100 µM
TGI (OVCAR-8 ovarian): > 100 µM
TGI (EKVX NSCLC): > 100 µM
TGI (OVCAR-5 ovarian): 65.4 µM
TGI (RPMI-8226 leukemia): 69.9 µM
TGI (CAKI-1 renal): 85.4 µM
TGI (SK-MEL-28 melanoma): > 100 µM
TGI (HOP-92 NSCLC): 93.3 µM
TGI (PC-3 prostate): > 100 µM
TGI (ACHN renal): > 100 µM
TGI (UACC-257 melanoma): 80.8 µM
TGI (MCF7 breast): > 100 µM
TGI (A498 renal): 94.4 µM
TGI (DU-145 prostate): > 100 µM
TGI (NCI-H226 lung): > 100 µM
TGI (NCI-H460 lung): > 100 µM
TGI (SF-295 CNS): > 100 µM
TGI (BT-549 breast): > 100 µM
TGI (SNB-75 CNS): > 100 µM
TGI (HS 578T breast): > 100 µM
TGI (CCRF-CEM leukemia): 72.3 µM
TGI (786-0 renal): > 100 µM
TGI (MDA-MB-231 breast): 70.6 µM
TGI (T-47D breast): > 100 µM
TGI (SK-OV-3 ovarian): 94.1 µM
TGI (NCI-H522 lung): 38.7 µM
TGI (HCC-2998 colon): 66 µM
TGI (K-562 leukemia): > 100 µM
TGI (A549 NSCLC): > 100 µM
TGI (MOLT-4 leukemia): 62 µM
TGI (LOX IMVI melanoma): > 100 µM
TGI (HL-60(TB) leukemia): 53.8 µM
TGI (OVCAR-3 ovarian): 96.1 µM
TGI (MALME-3M melanoma): 77.5 µM

CCOC(=O)Oc1ccc(C(CNC(C)C)OC(=O)OCC)cc1OC(=O)OCC (stereo not drawn)
TGI (SF-268 CNS): > 100 µM
TGI (HOP-62 NSCLC): > 100 µM
TGI (SN12C renal): > 100 µM
TGI (SR leukemia): > 100 µM
TGI (SNB-19 CNS): > 100 µM
TGI (HCT-15 colon): > 100 µM
TGI (HCT-116 colon): > 100 µM
TGI (COLO 205 colon): > 100 µM
TGI (MDA-MB-435): > 100 µM
TGI (SF-539 CNS): > 100 µM
TGI (U251 CNS): > 100 µM
TGI (OVCAR-4 ovarian): > 100 µM
TGI (NCI-H23 lung): > 100 µM
TGI (TK-10 renal): > 100 µM
TGI (UO-31 renal): > 100 µM
TGI (IGROV1 ovarian): > 100 µM
TGI (HT29 colon): > 100 µM
TGI (KM12 colon): > 100 µM
TGI (SK-MEL-2 melanoma): > 100 µM
TGI (RXF 393 renal): > 100 µM
TGI (NCI/ADR-RES ovarian): > 100 µM
TGI (UACC-62 melanoma): > 100 µM
TGI (SK-MEL-5 melanoma): > 100 µM
TGI (SW-620 colon): > 100 µM
TGI (MDA-N): > 100 µM
TGI (M14 melanoma): > 100 µM
TGI (OVCAR-8 ovarian): > 100 µM
TGI (EKVX NSCLC): > 100 µM
TGI (OVCAR-5 ovarian): > 100 µM
TGI (RPMI-8226 leukemia): > 100 µM
TGI (CAKI-1 renal): > 100 µM
TGI (SK-MEL-28 melanoma): > 100 µM
TGI (HOP-92 NSCLC): > 100 µM
TGI (PC-3 prostate): > 100 µM
TGI (ACHN renal): > 100 µM
TGI (UACC-257 melanoma): > 100 µM
TGI (MCF7 breast): > 100 µM
TGI (A498 renal): > 100 µM
TGI (DU-145 prostate): > 100 µM
TGI (NCI-H226 lung): > 100 µM
TGI (NCI-H460 lung): > 100 µM
TGI (SF-295 CNS): > 100 µM
TGI (BT-549 breast): > 100 µM
TGI (SNB-75 CNS): > 100 µM
TGI (HS 578T breast): > 100 µM
TGI (CCRF-CEM leukemia): > 100 µM
TGI (786-0 renal): > 100 µM
TGI (MDA-MB-231 breast): > 100 µM
TGI (T-47D breast): > 100 µM
TGI (SK-OV-3 ovarian): > 100 µM
TGI (NCI-H522 lung): > 100 µM
TGI (HCC-2998 colon): > 100 µM
TGI (K-562 leukemia): > 100 µM
TGI (A549 NSCLC): > 100 µM
TGI (MOLT-4 leukemia): > 100 µM
TGI (LOX IMVI melanoma): > 100 µM
TGI (HL-60(TB) leukemia): 98.5 µM
TGI (OVCAR-3 ovarian): > 100 µM
TGI (MALME-3M melanoma): > 100 µM
